# Test results: patent publication US20040152739A1, “Acyclic pyrazole compounds for the inhibition of mitogen activated protein kinase-activated protein kinase-2” (priority 2002, published 2004)
# Counter-ions that a name gives are not always drawn.
# Target: MK-2 (Homo sapiens, UniProt P49137)
# Assay: Determination of MK-2 IC50 (anion exchange resin capture assay, HSP-peptide phosphorylation)
# Type: biochemical
# Conditions: read-out: MK-2 Avg. IC50
# Procedure: The phosphorylation of HSP-peptide ([sequence]) by MAPKAPK2 was measured using an anion exchange resin capture assay method. […] The reaction was terminated and [γ^33P]ATP was removed from solution by the addition of 150 μl of AG 1×8 ion exchange resin in 900 mM sodium formate pH 3.0. A 50 μl aliquot of head volume was removed from the quenched reaction mixture and added to a 96-well plate, 150 μl of Microscint-40 (Packard) was added and the amount of phosphorylated-peptide was determined. Allow the Microscint to sit in the plates for 60 minutes prior to counting.
# Compounds are evaluated as potential inhibitors of the MK2 kinase by measuring their effects on MK2 phosphorylation of the peptide substrate. Compounds may be screened initially at two concentrations prior to determination of IC50 values. Screening results are expressed as percent inhibition at the concentrations of compound tested. For IC50 value determinations, compounds are tested at six concentrations in ten-fold serial dilutions with each concentration tested in triplicate. Results are expressed as IC50 values in micromolar. The assay is performed at a final concentration of 2% DMSO.
# Compounds are evaluated as potential inhibitors of the MK-2 kinase by measuring their effects on MK-2 phosphorylation of the peptide substrate. Compounds may be screened initially at two concentrations prior to determination of IC50 values. Screening results are expressed as percent inhibition at the concentrations of compound tested. For IC50 value determinations, compounds are tested at six concentrations in ten-fold serial dilutions with each concentration tested in triplicate. Results are expressed as IC50 values in micromolar. The assay is performed at a final concentration of 2% DMSO.
# MK-2, sequence (P49137 whole entry, species assumed): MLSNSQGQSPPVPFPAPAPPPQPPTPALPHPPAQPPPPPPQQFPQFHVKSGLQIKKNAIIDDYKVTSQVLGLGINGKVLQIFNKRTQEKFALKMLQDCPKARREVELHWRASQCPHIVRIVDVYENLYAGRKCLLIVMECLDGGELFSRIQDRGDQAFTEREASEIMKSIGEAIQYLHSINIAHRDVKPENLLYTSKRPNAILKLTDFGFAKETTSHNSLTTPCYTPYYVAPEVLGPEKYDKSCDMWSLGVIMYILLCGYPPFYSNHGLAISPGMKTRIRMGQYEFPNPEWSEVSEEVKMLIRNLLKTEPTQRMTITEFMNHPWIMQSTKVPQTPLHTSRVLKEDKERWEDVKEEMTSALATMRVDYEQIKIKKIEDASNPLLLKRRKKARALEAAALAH
row,Compound,IC50
1,"2-[2-(2H-1,2,3-triazol-2-yl)pyridin-4-yl]-6,7- dihydropyrazolo[1,5-a]pyrazin-4(5H)-one compound with 2-[2-(1H-1,2,3-triazol-1- yl)pyridin-4-yl]-6,7-dihydropyrazolo[1,5- a]pyrazin-4(5H)-one (1:1) [Example 109]",5210 nM
2,NCCCn1nc(-c2ccnc(-c3ccc(O)cc3)c2)cc1C(=O)O [Example 8],102 nM
3,NCCn1nc(-c2ccnc(-c3cccc([N+](=O)[O-])c3)c2)cc1C(=O)O [Example 9],109 nM
4,NCCn1nc(-c2ccnc(-c3ccc(OC(F)(F)F)cc3)c2)cc1C(=O)O [Example 11],161 nM
5,O=C1NCCn2nc(-c3ccnc(-c4ccc5ccncc5c4)c3)cc21 [Example 14],194 nM
6,O=C1NCCn2nc(-c3ccnc(-c4ccc5[nH]ncc5c4)c3)cc21 [Example 16],199 nM
7,"CCOC(=O)c1cc(-c2ccnc(-c3cnc4ccccc4c3)c2)nn1CCN [Example 58, hydrochloride]",1030 nM
8,"O=C1NCCn2nc(-c3ccnc(-c4ccc5c(c4)CCN5)c3)cc21 [Example 59, hydrochloride]",1070 nM
9,COc1ccc(-c2cc(-c3cc4n(n3)CCCNC4=O)ccn2)cc1 [Example 60],1090 nM
10,"O=C1NCCn2nc(-c3ccnc(-c4cccc(Cl)c4)c3)c(Cl)c21 [Example 61, 3-chloro-2-[2-(3-chlorophenyl)pyridin-4-yl]-6,7-dihydropyrazolo[1,5-a]pyrazin-4(5H)-one]",1130 nM
11,"O=Cc1ccc(-c2cc(-c3cc4n(n3)CCNC4=O)ccn2)cc1 [Example 62, hydrochloride]",1150 nM
12,NCCCn1nc(-c2ccncc2)cc1C(=O)O [Example 63],1160 nM
13,O=C1NC(CCl)Cn2nc(-c3ccnc(-c4cnc5ccccc5c4)c3)cc21 (centres unmarked) [Example 64],1170 nM
14,O=C1NCCn2nc(-c3ccnc(-c4ccco4)c3)cc21 [Example 65],1200 nM
15,O=C1NCCCn2nc(-c3ccnc(-c4cccc([N+](=O)[O-])c4)c3)cc21 [Example 66],1260 nM
16,"O=C1NCCn2nc(-c3ccnc(-c4nccs4)c3)cc21 [Example 67, trifluoroacetate]",1290 nM
17,Nc1cccc(-c2cc(-c3cc4n(n3)CCNC4=O)ccn2)c1 [Example 68],1300 nM
18,NCCCn1nc(-c2ccnc(-c3cccc([N+](=O)[O-])c3)c2)cc1C(N)=O [Example 69],1320 nM
19,"O=C1NCCn2nc(-c3ccnc(-n4ccnc4)c3)cc21 [Example 70, hydrochloride]",1360 nM

row,Compound,IC50
1,"O=C1NCCCn2nc(-c3ccnc(-c4ccc(O)cc4)c3)cc21 [Example 71, hydrochloride]",1370 nM
2,"O=C1NCCn2nc(-c3ccnc(-c4cccc(Cl)c4)c3)c(Br)c21 [Example 72, hydrochloride]",1390 nM
3,"O=C1NCCn2nc(-c3ccnc(-c4ccoc4)c3)cc21 [Example 73, hydrochloride]",1460 nM
4,"CN(C)c1ccc(-c2cc(-c3cc4n(n3)CCNC4=O)ccn2)cc1 [Example 74, hydrochloride]",1530 nM
5,O=C1NCCn2nc(-c3ccnc(-c4ccsc4)c3)cc21 [Example 75],1550 nM
6,"O=C1NCCn2nc(-c3ccnc(-c4ccc5c(c4)OCCO5)c3)cc21 [Example 76, trifluoroacetate]",1560 nM
7,"COc1cncc(-c2cc(-c3cc4n(n3)CCNC4=O)ccn2)c1 [Example 77, trifluoroacetate]",1690 nM
8,CC(C)NCc1ccc(-c2cc(-c3cc4n(n3)CCNC4=O)ccn2)cc1 [Example 78],1730 nM
9,"O=C1NCCCn2nc(-c3ccnc(-c4ccc(CO)cc4)c3)cc21 [Example 79, 2-{2-[4-(hydroxymethyl)phenyl]pyridin-4-yl}-5,6,7,8-tetrahydro-4H-pyrazolo[1,5-a][1,4]diazepin-4-one]",1750 nM
10,"CN(C)CCc1ccc(-c2cc(-c3cc4n(n3)CCNC4=O)ccn2)cc1 [Example 80, hydrochloride]",1980 nM
11,"O=C1NCCn2nc(-c3ccnc(-c4cncnc4)c3)cc21 [Example 81, hydrochloride]",1990 nM
12,"O=C1NCCn2nc(-c3ccnc(-c4ccc5c(c4)CNCC5)c3)cc21 [Example 82, trifluoroacetate]",2080 nM
13,"CS(=O)(=O)c1cccc(-c2cc(-c3cc4n(n3)CCNC4=O)ccn2)c1 [Example 83, trifluoroacetate]",2100 nM
14,O=C1NCCn2nc(-c3ccnc(-c4cccc(OCCN5CCNCC5)c4)c3)cc21 [Example 84],2130 nM
15,"CS(=O)(=O)Nc1cccc(-c2cc(-c3cc4n(n3)CCNC4=O)ccn2)c1 [Example 85, dihydrochloride]",2290 nM
16,CN(C)c1ncnc2ccc(-c3cc(-c4cc5n(n4)CCNC5=O)ccn3)cc12 [Example 86],2400 nM
17,CN(C)CCOc1cccc(-c2cc(-c3cc4n(n3)CCNC4=O)ccn2)c1 [Example 87],2400 nM
18,O=C1NCCn2nc(-c3ccncc3)cc21 [Example 88],2600 nM

# Further lines, results first:
row,IC50,Compound
1,26.9 nM,"NCCn1nc(-c2ccnc(-c3cnc4ccccc4c3)c2)cc1C(=O)O [Example 1, dihydrochloride]"
2,39.7 nM,"NCCCn1nc(-c2ccnc(-c3cccc([N+](=O)[O-])c3)c2)cc1C(=O)O [Example 2, dihydrochloride]"
3,47.7 nM,"NCC1Cn2nc(-c3ccnc(-c4cnc5ccccc5c4)c3)cc2C(=O)N1 (centres unmarked) [Example 3, trifluoroacetate]"
4,61.5 nM,O=C1NC(CO)Cn2nc(-c3ccnc(-c4cnc5ccccc5c4)c3)cc21 (centres unmarked) [Example 6]
5,68.6 nM,NCCCn1nc(-c2ccnc(-c3cnc4ccccc4c3)c2)cc1C(=O)O [Example 7]
6,117 nM,CN(C)c1ccc(-c2cc(-c3cc(C(=O)O)n(CCN)n3)ccn2)cc1 [Example 10]
7,168 nM,"COc1ccc(-c2cc(-c3cc(C(=O)O)n(CCN)n3)ccn2)cc1 [Example 12, trifluoroacetate]"
8,171 nM,"O=C1NCCn2nc(-c3ccnc(-c4cccc([N+](=O)[O-])c4)c3)cc21 [Example 13, dihydrochloride]"
9,196 nM,"COc1ccc(-c2cc(-c3cc(C(=O)O)n(CCCN)n3)ccn2)cc1 [Example 15, trifluoroacetate]"
10,212 nM,"O=C1NCCn2nc(-c3ccnc(/C=C/c4cccnc4)c3)cc21 [Example 18, dihydrochloride]"
11,216 nM,"O=C1NCCn2nc(-c3ccnc(-c4cnc5ccccc5c4)c3)cc21 [Example 19, dihydrochloride]"
12,217 nM,"COc1cccc(-c2cc(-c3cc(C(=O)O)n(CCN)n3)ccn2)c1 [Example 20, dihydrochloride]"
13,298 nM,"O=C1NCCn2nc(-c3ccnc(-c4ccc5ncccc5c4)c3)cc21 [Example 23, dihydrochloride]"
14,315 nM,"O=C(O)c1cc(-c2ccnc(/C=C/c3ccccc3)c2)nn1CCCNCCc1ccc(Br)cc1 [Example 25, trifluoroacetate]"
15,318 nM,"COc1ccc(-c2cc(-c3cc4n(n3)CCNC4=O)ccn2)cc1 [Example 26, dihydrochloride]"
16,371 nM,O=C1NCCn2nc(-c3ccnc(/C=C/c4ccccc4)c3)cc21 [Example 28]
17,444 nM,O=C1NCCn2nc(-c3ccnc(-c4ccc(Cl)s4)c3)cc21 [Example 29]
18,471 nM,COc1ccc(-c2cc(-c3cc4n(n3)CCNC4=O)ccn2)cc1F [Example 30]
19,479 nM,Cn1ccc2cc(-c3cc(-c4cc5n(n4)CCNC5=O)ccn3)ccc21 [Example 32]
20,505 nM,"O=C1NCCn2nc(-c3ccnc(-c4cccc(F)c4)c3)cc21 [Example 33, hydrochloride]"

row,IC50,Compound
1,520 nM,"O=C1NCCn2nc(-c3ccnc(-c4cccc(O)c4)c3)cc21 [Example 35, trifluoroacetate]"
2,521 nM,"O=C1NCCn2nc(-c3ccnc(-c4ccc5c(c4)CCO5)c3)cc21 [Example 36, trifluoroacetate]"
3,543 nM,"O=C1NCCn2nc(-c3ccnc(-c4ccc5occc5c4)c3)cc21 [Example 37, trifluoroacetate]"
4,554 nM,"O=C1Cc2cc(-c3cc(-c4cc5n(n4)CCNC5=O)ccn3)ccc2N1 [Example 38, trifluoroacetate]"
5,577 nM,"O=C1NCCCn2nc(-c3ccnc(-c4cnc5ccccc5c4)c3)cc21 [Example 39, trifluoroacetate]"
6,586 nM,"O=C1NCCn2nc(-c3ccnc(-c4cccnc4)c3)cc21 [Example 41, dihydrochloride]"
7,611 nM,"O=C1NCCn2nc(-c3ccnc(-c4ccc(O)cc4)c3)cc21 [Example 42, trifluoroacetate]"
8,630 nM,"O=C1NCCn2nc(-c3ccnc(-c4ccc(OCCN5CCOCC5)cc4)c3)cc21 [Example 43, dihydrochloride]"
9,638 nM,"O=C1NCCn2nc(-c3ccnc(-c4cccc(Cl)c4)c3)cc21 [Example 44, trifluoroacetate]"
10,735 nM,"NCCn1nc(-c2ccncc2)cc1C(=O)O [Example 45, trifluoroacetate]"
11,766 nM,"CN(C)CCOc1ccc(-c2cc(-c3cc4n(n3)CCNC4=O)ccn2)cc1 [Example 46, trifluoroacetate]"
12,821 nM,"CS(=O)(=O)c1ccc(-c2cc(-c3cc4n(n3)CCNC4=O)ccn2)cc1 [Example 48, dihydrochloride]"
13,835 nM,"O=C1NCCn2nc(-c3ccnc(-c4ccc5c(c4)CCCN5)c3)cc21 [Example 49, dihydrochloride]"
14,866 nM,"COc1ccc(-c2cc(-c3cc4n(n3)CCNC4=O)ccn2)cn1 [Example 50, trifluoroacetate]"
15,914 nM,"Nc1ccc(-c2cc(-c3cc4n(n3)CCNC4=O)ccn2)cc1 [Example 52, hydrochloride]"
16,923 nM,"O=Cc1c[nH]c2ccc(-c3cc(-c4cc5n(n4)CCNC5=O)ccn3)cc12 [Example 53, hydrochloride]"
17,929 nM,"O=C1NCCn2nc(-c3ccnc(-c4ccc(CO)cc4)c3)cc21 [Example 54, trifluoroacetate]"
18,930 nM,"O=C1NCCn2nc(-c3ccnc(-c4ccc5cc[nH]c5c4)c3)cc21 [Example 55, hydrochloride]"
19,965 nM,"O=C1NCCn2nc(-c3ccnc(-c4ccc5sccc5c4)c3)cc21 [Example 56, trifluoroacetate]"
20,1010 nM,"NC(=O)C1Cn2nc(-c3ccnc(-c4cnc5ccccc5c4)c3)cc2C(=O)N1 (centres unmarked) [Example 57, trifluoroacetate]"
